SMILES strings stand for the structures.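 Grown in 96-well plates, cells were treated for 48 hours with each compound at five concentrations. Insufficient inhibition: endpoint recorded as highest concentration tested. Definition used: TGI = concentration required for complete inhibition of growth.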

Some test systems named below: MDA-MB-435; CAKI-1 renal; PC-3 prostate; HCT-116 colon; SW-620 colon; HCC-2998 colon; COLO 205 colon; RPMI-8226 leukemia; SK-MEL-2 melanoma; SNB-75 CNS; LOX IMVI melanoma; SF-295 CNS; NCI-H460 lung; 786-0 renal; OVCAR-4 ovarian; HS 578T breast; HT29 colon.
Holding throughout (assay): NCI tumour cell line growth inhibition, 48 h

On to `COC(=O)CC1CN(C(=O)OCc2ccccc2)C(C)(C)O1` (stereo not given), for which the TGI in the assay on MDA-MB-435, in the assay with CAKI-1 renal, with PC-3 prostate, in the assay on HCT-116 colon, in the assay with SW-620 colon and in the assay with HCC-2998 colon was more than 100 µM throughout. Also, the TGI with COLO 205 colon was more than 100 µM; in the assay with RPMI-8226 leukemia it was more than 100 µM; with SK-MEL-2 melanoma, more than 100 µM; in the assay with SNB-75 CNS, 75.8 µM; with LOX IMVI melanoma it was more than 100 µM; in the assay with SF-295 CNS, more than 100 µM. For the same compound, the TGI in the assay with NCI-H460 lung, in the assay with 786-0 renal and in the assay with OVCAR-4 ovarian was more than 100 µM throughout.

For the compound `COC(=O)c1cccc(C)c1C1CN=NC12Cc1c(ccc(C)c1C)C2=O` (stereo not given), the TGI in the assay on MDA-MB-435, in the assay with HS 578T breast, with CAKI-1 renal, with HCT-116 colon, in the assay with SW-620 colon and in the assay on HCC-2998 colon was more than 100 µM in each case. Besides, the TGI is more than 100 µM with HT29 colon; 96.2 µM in the assay with RPMI-8226 leukemia; more than 100 µM in the assay on SNB-75 CNS; more than 100 µM in the assay on LOX IMVI melanoma; more than 100 µM in the assay with NCI-H460 lung; more than 100 µM with 786-0 renal. This compound also showed a TGI in the assay with OVCAR-4 ovarian of more than 100 µM.

Regarding `CC1N(O)C(c2ccccc2)C(c2ccccc2)=[N+]1[O-]` (stereo not given), the TGI in the assay with HS 578T breast, with CAKI-1 renal, with PC-3 prostate, in the assay with HCT-116 colon, with SW-620 colon and in the assay on HCC-2998 colon was more than 100 µM throughout. Moreover, the TGI in the assay with HT29 colon, in the assay on COLO 205 colon, with SK-MEL-2 melanoma, in the assay with SNB-75 CNS, in the assay with LOX IMVI melanoma and in the assay on SF-295 CNS was more than 100 µM throughout. For the same compound, the TGI in the assay on NCI-H460 lung, in the assay on 786-0 renal and with OVCAR-4 ovarian was more than 100 µM each time.

On to `C=CCN1C(=O)N/C(=C\c2ccc(Cl)cc2)C1=O`, for which the TGI with MDA-MB-435, in the assay with HS 578T breast, with CAKI-1 renal, in the assay on HCT-116 colon, in the assay on SW-620 colon and in the assay on HT29 colon was more than 100 µM throughout. For the same compound, the TGI in the assay on COLO 205 colon, with RPMI-8226 leukemia, in the assay with SNB-75 CNS, in the assay with LOX IMVI melanoma, with SF-295 CNS and in the assay with NCI-H460 lung was more than 100 µM throughout. Also, the TGI in the assay on 786-0 renal and in the assay on OVCAR-4 ovarian was more than 100 µM each time.

With `C#CCOC(=O)C(N)CS` (stereo not given), the TGI in the assay with MDA-MB-435, with HS 578T breast, with CAKI-1 renal, in the assay on PC-3 prostate, with HCT-116 colon and with SW-620 colon was more than 100 µM each time. Moreover, the TGI in the assay on HT29 colon, in the assay with COLO 205 colon, in the assay on RPMI-8226 leukemia, with SK-MEL-2 melanoma, with SNB-75 CNS and with LOX IMVI melanoma was more than 100 µM in each case. Besides, the TGI in the assay with SF-295 CNS and in the assay with 786-0 renal was more than 100 µM in each case.

As to `COc1cc(/C=C2\CCC(C)c3c2nc(N)c(C#N)c3-c2cc(OC)c(OC)c(OC)c2)cc(OC)c1OC` (stereo not given), the TGI in the assay on MDA-MB-435 is more than 100 µM; in the assay with HS 578T breast, 75.1 µM; in the assay on CAKI-1 renal, more than 100 µM; in the assay on PC-3 prostate, more than 100 µM; with HCT-116 colon, more than 100 µM; with SW-620 colon it was more than 100 µM. Further, the TGI with HT29 colon is more than 100 µM; in the assay with RPMI-8226 leukemia, more than 100 µM; in the assay with SK-MEL-2 melanoma it was more than 100 µM; in the assay on SNB-75 CNS, 15 µM; in the assay on LOX IMVI melanoma it was more than 100 µM; in the assay on 786-0 renal, more than 100 µM. In addition, the TGI with OVCAR-4 ovarian turned out to be 78.1 µM.

Consider `O=S(=O)([N-]c1nc2ccccc2nc1-[n+]1ccccc1)c1ccccc1`, for which the TGI with HS 578T breast, with CAKI-1 renal, in the assay with PC-3 prostate, in the assay on HCT-116 colon, in the assay on HCC-2998 colon and in the assay with HT29 colon was more than 100 µM each time. For the same compound, the TGI in the assay with COLO 205 colon, with RPMI-8226 leukemia, in the assay with SK-MEL-2 melanoma, with SNB-75 CNS, with LOX IMVI melanoma and in the assay with SF-295 CNS was more than 100 µM throughout. For the same compound, the TGI in the assay on NCI-H460 lung, in the assay on 786-0 renal and in the assay with OVCAR-4 ovarian was more than 100 µM in each case.

As for `Cc1nn(-c2ccccc2)c2nc3c(c(C)nn3-c3ccccc3)c(-c3ccccc3Br)c12`, the TGI in the assay with MDA-MB-435, in the assay with CAKI-1 renal, with PC-3 prostate, in the assay on HCT-116 colon, with SW-620 colon and in the assay on HCC-2998 colon was more than 100 µM throughout. Also, the TGI with HT29 colon, in the assay with COLO 205 colon, in the assay with RPMI-8226 leukemia, in the assay on SNB-75 CNS, in the assay on LOX IMVI melanoma and in the assay with SF-295 CNS was more than 100 µM each time. The TGI with NCI-H460 lung, with 786-0 renal and with OVCAR-4 ovarian was more than 100 µM in each case.

On to `COC(=O)C1=C(C(=O)OC)C(C(=O)c2ccccc2)N2N=C(c3ccc(Cl)cc3)C=CC12` (stereo not given), for which the TGI in the assay on MDA-MB-435, in the assay on CAKI-1 renal, in the assay with PC-3 prostate, in the assay with HCT-116 colon, in the assay with SW-620 colon and in the assay on HCC-2998 colon was more than 100 µM each time. The TGI is more than 100 µM in the assay on HT29 colon; more than 100 µM in the assay on COLO 205 colon; 80.1 µM in the assay with RPMI-8226 leukemia; more than 100 µM in the assay with SK-MEL-2 melanoma; more than 100 µM with LOX IMVI melanoma; more than 100 µM with SF-295 CNS. Also, the TGI in the assay on NCI-H460 lung, in the assay with 786-0 renal and in the assay on OVCAR-4 ovarian was more than 100 µM in each case.

Turning to `Cc1ccc(-c2cnc(NC3OC(COC(=O)c4ccccc4)C(OC(=O)c4ccccc4)C(OC(=O)c4ccccc4)C3OC(=O)c3ccccc3)s2)cc1` (stereo not given), the TGI in the assay on MDA-MB-435, with HS 578T breast, in the assay on PC-3 prostate, with HCT-116 colon, in the assay on SW-620 colon and with HT29 colon was more than 100 µM throughout. In addition, the TGI in the assay on COLO 205 colon, with RPMI-8226 leukemia, in the assay on SK-MEL-2 melanoma, in the assay on SNB-75 CNS, in the assay with LOX IMVI melanoma and in the assay with SF-295 CNS was more than 100 µM throughout. Moreover, the TGI in the assay on NCI-H460 lung, with 786-0 renal and with OVCAR-4 ovarian was more than 100 µM each time.

With `COCC1OCCN1C` (stereo not given), the TGI with MDA-MB-435, with HS 578T breast, in the assay on CAKI-1 renal, in the assay with PC-3 prostate, with HCT-116 colon and with SW-620 colon was more than 100 µM throughout. Moreover, the TGI in the assay with HT29 colon, in the assay with COLO 205 colon, in the assay on RPMI-8226 leukemia, in the assay with SK-MEL-2 melanoma, with SNB-75 CNS and in the assay on LOX IMVI melanoma was more than 100 µM in each case. The TGI in the assay on SF-295 CNS, in the assay with NCI-H460 lung, in the assay on 786-0 renal and in the assay on OVCAR-4 ovarian was more than 100 µM in each case.

As for `CSC1=N/C(=C\c2ccc(Cl)cc2)C(=O)N1CN1CCOCC1`, the TGI in the assay on MDA-MB-435 is more than 100 µM; with HS 578T breast, more than 100 µM; in the assay with PC-3 prostate, more than 100 µM; in the assay with HCT-116 colon, more than 100 µM; in the assay with SW-620 colon, more than 100 µM; in the assay with HT29 colon, 94.4 µM. The TGI in the assay with COLO 205 colon, in the assay on RPMI-8226 leukemia, in the assay with SK-MEL-2 melanoma, in the assay on SNB-75 CNS, with LOX IMVI melanoma and in the assay on SF-295 CNS was more than 100 µM each time. The TGI with 786-0 renal was more than 100 µM; with OVCAR-4 ovarian, 61.6 µM.

`CC/C(=C/OC)P1(=O)OC(C)(C)CN1C(C)(C)C` (stereo not given): the TGI in the assay on MDA-MB-435, in the assay with CAKI-1 renal, with PC-3 prostate, in the assay on HCT-116 colon, with SW-620 colon and in the assay on HCC-2998 colon was more than 100 µM throughout. Also, the TGI in the assay with HT29 colon, in the assay on COLO 205 colon, with RPMI-8226 leukemia, in the assay on SK-MEL-2 melanoma, in the assay on LOX IMVI melanoma and in the assay on SF-295 CNS was more than 100 µM each time. In addition, the TGI in the assay with NCI-H460 lung, in the assay with 786-0 renal and in the assay with OVCAR-4 ovarian was more than 100 µM in each case.

For `Nc1ccccc1C(=O)NNC(=O)c1ccccc1N`, the TGI with MDA-MB-435, in the assay on CAKI-1 renal, with PC-3 prostate, in the assay with HCT-116 colon, in the assay with SW-620 colon and in the assay with HCC-2998 colon was more than 100 µM each time. In addition, the TGI in the assay with HT29 colon, with COLO 205 colon, with RPMI-8226 leukemia, in the assay with SK-MEL-2 melanoma, with SNB-75 CNS and with LOX IMVI melanoma was more than 100 µM in each case. Moreover, the TGI with SF-295 CNS, in the assay with 786-0 renal and in the assay on OVCAR-4 ovarian was more than 100 µM in each case.

`NC(=O)CC1(O)C=CC(=O)C=C1`: the TGI in the assay on MDA-MB-435, with CAKI-1 renal, in the assay on PC-3 prostate, in the assay on HCT-116 colon, with SW-620 colon and in the assay with HCC-2998 colon was more than 100 µM throughout. The TGI with HT29 colon, in the assay on COLO 205 colon, in the assay with RPMI-8226 leukemia, in the assay with SK-MEL-2 melanoma, in the assay with SNB-75 CNS and with LOX IMVI melanoma was more than 100 µM in each case. Moreover, the TGI with SF-295 CNS, in the assay with NCI-H460 lung, in the assay on 786-0 renal and with OVCAR-4 ovarian was more than 100 µM in each case.
